From patent US10077261B2, “Imidazolin-5-one derivative useful as FASN inhibitors for the treatment of cancer” (Janssen Pharmaceutica NV, priority 2012, dated 2018)

How the values were obtained:
[1] = tested on: PC-3M-Luc-C6 prostate cells; test: In vitro PC-3M-Luc-C6 prostate cell proliferation assay in lipid reduced medium; assay type: cell-based; settings: 96 h, read-out: pIC50 PC-3M-Luc-C6 prostate cell (converted)
A2780 ovarian cells [2] = test: A2780 ovarian cell proliferation assay in lipid reduced medium, without palmitate (MTT); assay type: cell-based; settings: Homo sapiens, A2780, 96 h; read-out: pIC50 A2780 Ovarian Cell, Without Palmitate (converted)
[3] = target: Fatty Acid Synthase Keto-reductase Domain (FASN KR) (Homo sapiens, UniProt P49327); test: Fatty Acid Synthase keto-reductase domain (FASN KR) inhibition, NADPH oxidation at 340 nm
Chain of Fatty Acid Synthase Keto-reductase Domain (FASN KR) (P49327 whole entry, the tested form may be a part): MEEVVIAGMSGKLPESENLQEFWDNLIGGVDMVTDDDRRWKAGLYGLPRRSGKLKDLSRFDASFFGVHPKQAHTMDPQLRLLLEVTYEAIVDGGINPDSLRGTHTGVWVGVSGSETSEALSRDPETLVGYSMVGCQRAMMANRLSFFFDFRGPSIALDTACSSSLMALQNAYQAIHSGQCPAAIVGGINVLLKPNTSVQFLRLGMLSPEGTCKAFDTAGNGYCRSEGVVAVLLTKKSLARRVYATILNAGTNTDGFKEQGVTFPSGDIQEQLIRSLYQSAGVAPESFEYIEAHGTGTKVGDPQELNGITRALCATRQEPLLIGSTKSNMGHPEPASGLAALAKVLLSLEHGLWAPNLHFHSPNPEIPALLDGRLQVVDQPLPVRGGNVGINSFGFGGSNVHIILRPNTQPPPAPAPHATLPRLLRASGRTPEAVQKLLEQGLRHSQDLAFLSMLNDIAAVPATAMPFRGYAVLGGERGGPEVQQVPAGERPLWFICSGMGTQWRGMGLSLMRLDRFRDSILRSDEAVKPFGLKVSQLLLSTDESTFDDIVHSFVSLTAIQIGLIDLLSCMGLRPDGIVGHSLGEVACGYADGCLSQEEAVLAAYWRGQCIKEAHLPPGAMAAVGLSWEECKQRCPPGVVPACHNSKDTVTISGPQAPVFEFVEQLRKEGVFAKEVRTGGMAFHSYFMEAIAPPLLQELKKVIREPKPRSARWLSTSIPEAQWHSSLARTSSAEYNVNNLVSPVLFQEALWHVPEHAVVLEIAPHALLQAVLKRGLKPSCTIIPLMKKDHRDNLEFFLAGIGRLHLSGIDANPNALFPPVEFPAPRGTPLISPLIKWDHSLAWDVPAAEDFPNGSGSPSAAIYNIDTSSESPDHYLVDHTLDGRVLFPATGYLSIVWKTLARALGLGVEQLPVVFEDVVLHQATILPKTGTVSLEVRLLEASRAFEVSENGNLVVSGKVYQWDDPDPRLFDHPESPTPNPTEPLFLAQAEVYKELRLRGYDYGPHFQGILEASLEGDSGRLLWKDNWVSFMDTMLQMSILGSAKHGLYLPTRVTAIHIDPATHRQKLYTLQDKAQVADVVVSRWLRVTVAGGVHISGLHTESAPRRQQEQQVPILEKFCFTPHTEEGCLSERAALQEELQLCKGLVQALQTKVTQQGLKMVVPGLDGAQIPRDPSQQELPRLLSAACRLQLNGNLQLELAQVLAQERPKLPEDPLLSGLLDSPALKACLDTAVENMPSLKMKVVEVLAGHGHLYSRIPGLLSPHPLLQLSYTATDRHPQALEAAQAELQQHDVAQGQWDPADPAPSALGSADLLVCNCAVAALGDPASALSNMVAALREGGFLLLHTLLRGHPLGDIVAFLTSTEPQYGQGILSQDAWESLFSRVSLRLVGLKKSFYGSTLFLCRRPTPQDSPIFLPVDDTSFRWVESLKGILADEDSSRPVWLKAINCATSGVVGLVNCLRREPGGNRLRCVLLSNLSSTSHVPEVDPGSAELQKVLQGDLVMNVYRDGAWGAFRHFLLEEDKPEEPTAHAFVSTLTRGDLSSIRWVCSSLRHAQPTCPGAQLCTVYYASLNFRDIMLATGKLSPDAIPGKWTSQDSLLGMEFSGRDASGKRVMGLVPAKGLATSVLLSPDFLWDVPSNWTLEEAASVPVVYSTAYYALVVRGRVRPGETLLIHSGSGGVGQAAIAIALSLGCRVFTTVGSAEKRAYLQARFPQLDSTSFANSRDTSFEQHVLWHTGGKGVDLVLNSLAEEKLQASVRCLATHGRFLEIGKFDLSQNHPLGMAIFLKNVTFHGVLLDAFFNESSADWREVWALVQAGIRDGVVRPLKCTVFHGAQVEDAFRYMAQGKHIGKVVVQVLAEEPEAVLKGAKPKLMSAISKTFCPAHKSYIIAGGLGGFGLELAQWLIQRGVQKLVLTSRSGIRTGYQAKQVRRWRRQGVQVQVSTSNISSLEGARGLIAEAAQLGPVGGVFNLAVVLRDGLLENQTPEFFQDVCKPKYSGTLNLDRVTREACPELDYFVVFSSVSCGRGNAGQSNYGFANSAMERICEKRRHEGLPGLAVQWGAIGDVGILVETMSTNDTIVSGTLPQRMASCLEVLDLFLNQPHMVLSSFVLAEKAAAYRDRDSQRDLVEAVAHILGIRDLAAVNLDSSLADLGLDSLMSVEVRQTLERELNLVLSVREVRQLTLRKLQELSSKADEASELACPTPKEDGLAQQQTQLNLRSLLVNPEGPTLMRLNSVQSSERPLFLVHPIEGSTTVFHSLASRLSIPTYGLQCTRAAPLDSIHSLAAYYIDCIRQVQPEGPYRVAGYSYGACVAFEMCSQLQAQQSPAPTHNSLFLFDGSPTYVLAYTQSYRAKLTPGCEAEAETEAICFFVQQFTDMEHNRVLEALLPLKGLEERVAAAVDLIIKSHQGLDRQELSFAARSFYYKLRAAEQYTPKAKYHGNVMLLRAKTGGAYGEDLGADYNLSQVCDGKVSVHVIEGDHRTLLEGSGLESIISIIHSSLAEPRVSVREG
Method: After 20 minutes incubation at room temperature the plate was measured again (T2).
The decrease in absorbance was calculated as (Absorbance before incubation T1)−(Absorbance following incubation T2).
A plot of Controlmin versus test compound concentration was fitted to a 4-parameter logistic curve using a non-linear least squares regression method.

[4] = tested on: LNCaP-Vancouver prostate cells; test: In vitro LNCaP Vancouver prostate cell proliferation assay in lipid reduced medium; assay type: cell-based; settings: read-out: pIC50 LNCaP_Vancouver prostate cell (converted)
[5] = target: T1, hFASN enzyme (full length) (Homo sapiens, UniProt P49327); test: Fatty Acid Synthase (FASN) inhibition scintillation proximity assay; assay type: biochemical; settings: for inhibition at 10 µM: read-out: Human FASN % inhibition @ 10 μM, 10 μM test compound; for IC50: read-out: Human FASN pIC50 (converted)
T1 construct: 10 μL hFASN enzyme (full length, 300 ng, purified in house); made in house
T1 sequence (P49327 whole entry): as the sequence (P49327 whole entry, the tested form may be a part) above
Outline: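 Compounds at 0.01–30 μM were mixed with 300 ng purified full-length enzyme in 100 mM KH2PO4 pH 7.5, 1 mM DTT. Substrates ³H-acetyl-CoA and malonyl-CoA were then converted, and bead addition stopped the reaction. Signal was normalised to low and high plate controls and fitted by 4-parameter nonlinear regression.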

A2780 ovarian cells [6] = test: A2780 ovarian cell proliferation assay in lipid reduced medium, with palmitate (MTT); assay type: cell-based; settings: Homo sapiens, A2780, 96 h; read-out: pIC50 A2780 Ovarian Cell, With Palmitate (converted)
Outline: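 Seeded cells were switched next day to lipid-reduced serum, exposed to compound and 25 μM palmitate complexed with fatty-acid-free BSA, and incubated 96 h. Proliferation was then determined by MTT absorbance at 544 nm, with a best-fit curve of signal against concentration.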

| SMILES | IC50 [1] | IC50 (A2780 ovarian cells [2]) | IC50 [3] | IC50 [4] | inhibition at 10 µM [5] | IC50 [5] | IC50 (A2780 ovarian cells [6]) |
| --- | --- | --- | --- | --- | --- | --- | --- |
| N#Cc1ccc2cc(-c3ccc(C4=NC5(CC5)C(=O)N4CC4CN(C(=O)C5(F)CC5)C4)c(F)c3)ccc2c1 [compound 225, 6-(3-fluoro-4-(6-((1-(1-fluorocyclopropanecarbonyl)azetidin-3-yl)methyl)-7-oxo-4,6-diazaspiro[2.4]hept-4-en-5-yl)phenyl)-2-naphthonitrile] | 26.9 nM | 25.1 nM | 74.1 nM | 158 nM | 95% | 38 nM | 5250 nM |
| N#Cc1ccc2cc(-c3ccc(C4=NC5(CC5)C(=O)N4CC4CN(C(=O)C5CCO5)C4)c(F)c3)ccc2c1 (stereo not drawn) [compound 226, 6-(3-fluoro-4-(6-((1-(oxetane-2-carbonyl)azetidin-3-yl)methyl)-7-oxo-4,6-diazaspiro[2..4]hept-4-en-5-yl)phenyl)-2-naphthonitrile] | ~5.89 nM | 2.34 nM | 24 nM | 21.9 nM | 98% | 23.4 nM | > 10000 nM |
| Cn1cc2ccc(-c3ccc(C4=NC5(CC5)C(=O)N4CC4CN(C(=O)C5CC5)C4)c(F)c3)cc2n1 [compound 227, 6-((1-(cyclopropanecarbonyl)azetidin-3-yl)methyl)-5-(2-fluoro-4-(2-methyl-2H-indazol-6-yl)phenyl)-4,6-diazaspiro[2.4]hept-4-en-7-one] | 55 nM | 13.2 nM | 151 nM | 355 nM | 99% | 42.7 nM | > 10000 nM |
| Cc1cc(C2=NC3(CC3)C(=O)N2C[C@@H]2CCN(C(=O)C3CC3)C2)ccc1-c1ccc2sc(C)c(C)c2c1 [compound 231, (R)-6-((1-(cyclopropanecarbonyl)pyrrolidin-3-yl)methyl)-5-(4-(2,3-dimethylbenzo[b]thiophen-5-yl)-3-methylphenyl)-4,6-diazaspiro[2.4]hept-4-em-7-one] | ~1620 nM | 2510 nM | 282 nM | 2190 nM | 108% | 100 nM | > 6170 nM |
| O=C(C1CC1)N1CC[C@@H](CN2C(=O)C3(CC3)N=C2c2ccc(-c3ccc4sccc4c3)c(F)c2)C1 [compound 233, (R)-5-(4-(benzo[b]thiophen-5-yl)-3-fluorophenyl)-6-((1-(cyclopropanecarbonyl)pyrrolidin-3-yl)methyl)-4,6-diazaspiro[2.4]hept-4-en-7-one] | 575 nM | 912 nM | 93.3 nM | 1700 nM | 110% | 50.1 nM | > 10000 nM |
| O=C(C1CC1)N1CC[C@@H](CN2C(=O)C3(CC3)N=C2c2ccc(-c3ccc4[nH]ccc4c3)c(F)c2)C1 [compound 234, (R)-6-((1-(cyclopropanecarbonyl)pyrrolidin-3-yl)methyl)-5-(3-fluoro-4-(1H-indol-5-yl)phenyl)-4,6-diazaspiro[2.4]hept-4-en-7-one] | 23.4 nM | ~28.8 nM | 51.3 nM | 245 nM | 108% | 20.9 nM | > 10000 nM |
| O=C(C1CC1)N1CC[C@@H](CN2C(=O)C3(CC3)N=C2c2ccc(-c3ccc4cc[nH]c4c3)c(F)c2)C1 [compound 236, (R)-6-((1-(cyclopropanecarbonyl)pyrrolidin-3-yl)methyl)-5-(3-fluoro-4-(1H-indol-6-yl)phenyl)-4,6-diazaspiro[2.4]hept-4-en-7-one] | 51.3 nM | ~89.1 nM | 95.5 nM | 646 nM | 98% | 34.7 nM | > 10000 nM |
| O=C(C1CC1)N1CC[C@@H](CN2C(=O)C3(CC3)N=C2c2ccc(-c3cccc4[nH]ncc34)c(F)c2)C1 [compound 237, (R)-6-((1-(cyclopropanecarbonyl)pyrrolidin-3-yl)methyl)-5-(3-fluoro-4-(1H-indazol-4-yl)phenyl)-4,6-diazaspiro[2.4]hept-4-en-7-one] | ~74.1 nM | 35.5 nM | 120 nM | 631 nM | 100% | 79.4 nM | > 10000 nM |
| Cc1cc(C2=NC3(CC3)C(=O)N2C[C@@H]2CCN(C(=O)C3CC3)C2)ccc1-c1ccc2[nH]ccc2c1 [compound 238, (R)-5-(4-(1H-indol-5-yl)-3-methylphenyl)-6-((1-(cyclopropanecarbonyl)pyrrolidin-3-yl)methyl)-4,6-diazaspiro[2.4]hept-4-en-7-one] | 70.8 nM | 42.7 nM | 105 nM | 245 nM | 98% | 43.7 nM | > 10000 nM |

More lines, now with the values ahead:

| IC50 [1] | IC50 (A2780 ovarian cells [2]) | IC50 [3] | IC50 [4] | inhibition at 10 µM [5] | IC50 [5] | IC50 (A2780 ovarian cells [6]) | SMILES |
| --- | --- | --- | --- | --- | --- | --- | --- |
| ~166 nM | 200 nM | 26.3 nM | 537 nM | 101% | 12.3 nM | > 6170 nM | O=C(C1CC1)N1CC[C@@H](CN2C(=O)C3(CC3)N=C2c2ccc(-c3ccc4occc4c3)cc2F)C1 [compound 240, (R)-5-(4-(benzofuran-5-yl)-2-fluorophenyl)-6-((1-(cyclopropanecarbonyl)pyrrolidin-3-yl)methyl)-4,6-diazaspiro[2.4]hept-4-en-7-one] |
| ~56.2 nM | ~75.9 nM | 28.8 nM | 166 nM | 100% | 21.9 nM | > 10000 nM | O=C(C1CC1)N1CC[C@@H](CN2C(=O)C3(CC3)N=C2c2ccc(-c3ccc4sccc4c3)cc2F)C1 [compound 241, (R)-5-(4-(benzo[b]thiophen-5-yl)-2-fluorophenyl)-6-((1-(cyclopropanecarbonyl)pyrrolidin-3-yl)methyl)-4,6-diazaspiro[2.4]hept-4-en-7-one] |
| ~646 nM | ~724 nM | 35.5 nM | ~1580 nM | 103% | 19.1 nM | > 10000 nM | Cc1cc2cc(-c3ccc(C4=NC5(CC5)C(=O)N4C[C@@H]4CCN(C(=O)C5CC5)C4)c(F)c3)ccc2o1 [compound 242, (R)-6-((1-(cyclopropanecarbonyl)pyrrolidin-3-yl)methyl)-5-(2-fluoro-4-(2-methylbenzofuran-5-yl)phenyl)-4,6-diazaspiro[2.4]hept-4-en-7-one] |
| ~240 nM | 646 nM | 41.7 nM | 832 nM | 104% | 22.4 nM | > 6170 nM | Cc1cc2cc(-c3ccc(C4=NC5(CC5)C(=O)N4C[C@@H]4CCN(C(=O)C5CC5)C4)c(F)c3)ccc2s1 [compound 243, (R)-6-((1-(cyclopropanecarbonyl)pyrrolidin-3-yl)methyl)-5-(2-fluoro-4-(2-methylbenzo[b]thiophen-5-yl)phenyl)-4,6-diazaspiro[2.4]hept-4-en-7-one] |
| ~1410 nM | ~2240 nM | 56.2 nM | 1820 nM | 101% | 56.2 nM | > 10000 nM | Cc1oc2ccc(-c3ccc(C4=NC5(CC5)C(=O)N4C[C@@H]4CCN(C(=O)C5CC5)C4)c(F)c3)cc2c1C [compound 244, (R)-6-((1-(cyclopropanecarbonyl)pyrrolidin-3-yl)methyl)-5-(4-(2,3-dimethylbenzofuran-5-yl)-2-fluorophenyl)-4,6-diazaspiro[2.4]hept-4-en-7-one] |
| ~646 nM | 1550 nM | 37.2 nM | ~1700 nM | 98% | 32.4 nM | > 10000 nM | Cc1sc2ccc(-c3ccc(C4=NC5(CC5)C(=O)N4C[C@@H]4CCN(C(=O)C5CC5)C4)c(F)c3)cc2c1C [compound 245] |
| 4.79 nM | ~5.01 nM | 38 nM | 15.5 nM | 101% | 17 nM | > 10000 nM | O=C(C1CC1)N1CC[C@@H](CN2C(=O)C3(CC3)N=C2c2ccc(-c3ccc4[nH]ccc4c3)cc2F)C1 [compound 246, (R)-6-((1-(cyclopropanecarbonyl)pyrrolidin-3-yl)methyl)-5-(2-fluoro-4-(1H-indol-5-yl)phenyl)-4,6-diazaspiro[2.4]hept-4-en-7-one] |
| 7.24 nM | 5.01 nM | 17.8 nM | 23.4 nM | 103% | 16.2 nM | > 10000 nM | O=C(C1CC1)N1CC[C@@H](CN2C(=O)C3(CC3)N=C2c2ccc(-c3ccc4cc[nH]c4c3)cc2F)C1 [compound 247, (R)-6-((1-(cyclopropanecarbonyl)pyrrolidin-3-yl)methyl)-5-(2-fluoro-4-(1H-indol-6-yl)phenyl)-4,6-diazaspiro[2.4]hept-4-en-7-one] |
| 4.17 nM | ~5.5 nM | 19.5 nM | 16.6 nM | 102% | 17 nM | > 10000 nM | O=C(C1CC1)N1CC[C@@H](CN2C(=O)C3(CC3)N=C2c2ccc(-c3ccc4cccnc4c3)cc2F)C1 [compound 249, (R)-6-((1-(cyclopropanecarbonyl)pyrrolidin-3-yl)methyl)-5-(2-fluoro-4-(quinolin-7-yl)phenyl)-4,6-diazaspiro[2.4]hept-4-en-7-one] |
